# Results from the Kinase Knowledgebase extract (Sharma et al. 2016).
# Target: CDK2 (human) (UniProt P24941)
# Experiment: Enzyme Assay
row,Structure (SMILES),Ki [nM]
1,COc1cccc(Nc2nccc(-c3sc(=O)n(C)c3C)n2)c1,70
2,Cc1c(-c2ccnc(Nc3ccccc3C(F)(F)F)n2)sc(=O)n1C,> 10000
3,CCc1ccccc1Nc1nccc(-c2sc(=O)n(C)c2C)n1,1230
4,COc1ccc(Nc2nccc(-c3sc(=O)n(C)c3C)n2)cc1,700
5,Cc1c(-c2ccnc(Nc3ccccc3OC(F)F)n2)sc(=O)n1C,5360
6,Cc1c(Nc2nccc(-c3sc(=O)n(C)c3C)n2)cccc1NS(C)(=O)=O,190
7,COc1cc(Cl)ccc1Nc1nccc(-c2sc(=O)n(C)c2C)n1,2230
8,COc1ccc(Nc2nccc(-c3sc(=O)n(C)c3C)n2)c(OC)c1,> 10000
9,COc1ccccc1Nc1nccc(-c2sc(=O)n(C)c2C)n1,2470
10,Cc1cc(F)ccc1Nc1nccc(-c2sc(=O)n(C)c2C)n1,490
11,Cc1ccccc1Nc1nccc(-c2sc(=O)n(C)c2C)n1,460
12,CCOc1ccccc1Nc1nccc(-c2sc(=O)n(C)c2C)n1,> 10000

# These reach a lower Ki. Values come first.
row,Ki [nM],Structure (SMILES)
1,30,Cc1c(-c2ccnc(Nc3cccc(NS(C)(=O)=O)c3)n2)sc(=O)n1C
2,40,Cc1ccc(Nc2nccc(-c3sc(=O)n(C)c3C)n2)cc1
3,50,CCc1ccc(Nc2nccc(-c3sc(=O)n(C)c3C)n2)cc1
4,40,Cc1c(-c2ccnc(Nc3ccccc3)n2)sc(=O)n1C
5,20,CC(=O)c1cccc(Nc2nccc(-c3sc(=O)n(C)c3C)n2)c1
6,20,Cc1cccc(Nc2nccc(-c3sc(=O)n(C)c3C)n2)c1
